Where a name gives a salt, the structure may show the parent alone.
Tests used:
AU565 cells = assay: AU565 breast cancer cell survival with NRG1 and lapatinib (FIG. 1); assay type: cell-based; settings: for cell survival: concomitant inhibition of Dusp-1 by BCI and c-Fos by either curcumin or DFC (combination), FIG. 1 right panel
Protocol: AU565 cell line was established from the malignant pleural effusion of the mammary gland, which overexpresses the HER2. This class of tumors is treated by lapatinib. This treatment is not curative and relapse is common because cancer stem cells are not responsive to the treatment.

HCC827 cells = assay: HCC827 lung cancer cell survival with HGF and erlotinib (FIG. 2); assay type: cell-based; settings: concomitant inhibition of Dusp-1 by BCI and c-Fos by either curcumin or DFC (combination), FIG. 2 right panel
Source text: HCC827 cell line was derived from the lung adenocarcinoma. This lung adenocarcinoma has an acquired mutation in the EGFR tyrosine kinase domain (E746-A750 deletion). […] Most patients develop resistance by acquiring gatekeeper mutation the kinase domain and single TKI treatment is not curative because cancer stem cells are refractory to the treatment. In addition overexpression of growth factor HGF leading to activation of MET is a more frequent way of bypassing the EGFR mediated survival in this tumor model. Besides, cancer stem cells in the presence of growth factor are not addicted to the oncogene.

H1703 cells = assay: H1703 lung sarcoma cell survival with EGF and sunitinib (FIG. 3); assay type: cell-based; settings: concomitant inhibition of Dusp-1 by BCI and c-Fos by either curcumin or DFC (combination), FIG. 3 right panel
Protocol: H1703 cell line was derived from the lung sarcoma, which is driven by PDGFRA as this cell line has amplified the PDGFRA. This group of patients is treated with sunitinib.

RT4 cells = assay: RT4 bladder cancer cell survival with EGF and PLX4032 (FIG. 4); assay type: cell-based; settings: FIG. 4 right panel; for cell survival: concomitant inhibition of Dusp-1 by BCI and c-Fos by either curcumin or DFC (combination)
Protocol: To determine the effect of c-Fos and Dusp-1 inhibition with the tyrosine kinase inhibitor PLX4032, RT4 cells were assayed, as a model bladder cancer, shown in FIG. 4. This cell line was derived from bladder cancer patients, which has amplification of EGFR.

BaF3-BCR-ABL cells = settings: Imatinib combined with BCI, cited from earlier work
parental BaF3 cells = settings: cited from earlier work; for effect of the drug combination: Imatinib combined with BCI
[1] = system: leukemia initiating cells (LIC); settings: cited from earlier work

Structure (SMILES): O=C1/C(=C/c2ccccc2)C(NC2CCCCC2)c2ccccc21 (centres unmarked) [BCI, (E)-2-benzylidene-3-(cyclohexylamino)-2,3-dihydro-1H-inden-1-one]
- cell survival (AU565 cells): completely suppresses the cell survival
- cell survival (HCC827 cells): completely suppresses the cell survival
- cell survival (H1703 cells): completely suppresses the cell survival
- cell survival (RT4 cells): completely suppresses the cell survival
- effect of the drug combination (BaF3-BCR-ABL cells; BCR-ABL positive cells): no effect
- sensitivity in cell proliferation assay (BaF3-BCR-ABL cells; BaF3-BCR-ABL cells with c-Fos knockdown): fully sensitive
- effect of the drug combination (parental BaF3 cells): no effect

Structure (SMILES): COc1cc(/C=C/C(=O)C(=Cc2ccc(F)c(F)c2)C(=O)/C=C/c2ccc(O)c(OC)c2)ccc1O [DFC, difluorinated curcumin]
- cell survival (AU565 cells): completely suppresses the cell survival
- cell survival (H1703 cells): completely suppresses the cell survival
- cell survival (RT4 cells): completely suppresses the cell survival

Structure (SMILES): Cc1ccc(NC(=O)c2ccc(CN3CCN(C)CC3)cc2)cc1Nc1nccc(-c2cccnc2)n1 [Imatinib, Imatinib mesylate]
- effect of the drug combination (parental BaF3 cells): no effect
- survival and apoptosis (parental BaF3 cells; inhibition of c-Fos and Dusp-1 together with Imatinib treatment): no effect
- survival of patients with leukemia [1]: improved the survival
- elimination of leukemia initiating cells (LIC) ([1]; patients with leukemia): did not eliminate

Structure (SMILES): COc1cc(/C=C/C(=O)CC(=O)/C=C/c2ccc(O)c(OC)c2)ccc1O [curcumin]
- cell survival (AU565 cells): completely suppresses the cell survival
- cell survival (HCC827 cells): completely suppresses the cell survival
- cell survival (H1703 cells): completely suppresses the cell survival
- relative potency of the BCI combination (curcumin versus DFC) (RT4 cells; combination with BCI): more potent
- cell survival (RT4 cells): completely suppresses the cell survival

Structure (SMILES): CS(=O)(=O)CCNCc1ccc(-c2ccc3ncnc(Nc4ccc(OCc5cccc(F)c5)c(Cl)c4)c3c2)o1 [lapatinib]
- TKI response on addition of growth factor (AU565 cells; addition of NRG1, lapatinib): confer resistance
